From US20230322747A1, “OXADIAZOLE HDAC6 INHIBITORS AND USES THEREOF” (Eikonizo Therapeutics, Inc., priority 2022, published 2023)
pIC50: −log10 of the molar value.

Tests used:
Human HDAC6 = Human HDAC6 (Homo sapiens (Human), UniProt Q9UBN7); assay: HDAC6 enzymatic activity assay (Caliper endpoint or fluorogenic format); type: biochemical; conditions: for pIC50: in vitro enzymatic; for Selectivity (6 v 8) (fold): ratio of HDAC8 IC50/HDAC6 IC50
Human HDAC8 = Human HDAC8 (Homo sapiens (Human), UniProt Q9BY41); assay: Caliper endpoint assay for HDAC8 enzymatic activity; type: biochemical; conditions: in vitro enzymatic
Human HDAC8, sequence (Q9BY41 whole entry): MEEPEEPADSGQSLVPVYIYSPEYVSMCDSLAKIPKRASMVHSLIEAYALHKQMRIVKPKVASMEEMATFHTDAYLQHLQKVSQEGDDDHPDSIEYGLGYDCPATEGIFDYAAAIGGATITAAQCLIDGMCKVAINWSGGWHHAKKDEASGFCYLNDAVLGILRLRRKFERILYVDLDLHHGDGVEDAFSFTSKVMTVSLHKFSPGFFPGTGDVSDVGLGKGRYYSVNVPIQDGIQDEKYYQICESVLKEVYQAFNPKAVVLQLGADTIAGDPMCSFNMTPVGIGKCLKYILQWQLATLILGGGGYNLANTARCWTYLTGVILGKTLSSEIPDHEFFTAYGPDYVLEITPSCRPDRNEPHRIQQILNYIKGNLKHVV

Human HDAC6, sequence (Q9UBN7 whole entry): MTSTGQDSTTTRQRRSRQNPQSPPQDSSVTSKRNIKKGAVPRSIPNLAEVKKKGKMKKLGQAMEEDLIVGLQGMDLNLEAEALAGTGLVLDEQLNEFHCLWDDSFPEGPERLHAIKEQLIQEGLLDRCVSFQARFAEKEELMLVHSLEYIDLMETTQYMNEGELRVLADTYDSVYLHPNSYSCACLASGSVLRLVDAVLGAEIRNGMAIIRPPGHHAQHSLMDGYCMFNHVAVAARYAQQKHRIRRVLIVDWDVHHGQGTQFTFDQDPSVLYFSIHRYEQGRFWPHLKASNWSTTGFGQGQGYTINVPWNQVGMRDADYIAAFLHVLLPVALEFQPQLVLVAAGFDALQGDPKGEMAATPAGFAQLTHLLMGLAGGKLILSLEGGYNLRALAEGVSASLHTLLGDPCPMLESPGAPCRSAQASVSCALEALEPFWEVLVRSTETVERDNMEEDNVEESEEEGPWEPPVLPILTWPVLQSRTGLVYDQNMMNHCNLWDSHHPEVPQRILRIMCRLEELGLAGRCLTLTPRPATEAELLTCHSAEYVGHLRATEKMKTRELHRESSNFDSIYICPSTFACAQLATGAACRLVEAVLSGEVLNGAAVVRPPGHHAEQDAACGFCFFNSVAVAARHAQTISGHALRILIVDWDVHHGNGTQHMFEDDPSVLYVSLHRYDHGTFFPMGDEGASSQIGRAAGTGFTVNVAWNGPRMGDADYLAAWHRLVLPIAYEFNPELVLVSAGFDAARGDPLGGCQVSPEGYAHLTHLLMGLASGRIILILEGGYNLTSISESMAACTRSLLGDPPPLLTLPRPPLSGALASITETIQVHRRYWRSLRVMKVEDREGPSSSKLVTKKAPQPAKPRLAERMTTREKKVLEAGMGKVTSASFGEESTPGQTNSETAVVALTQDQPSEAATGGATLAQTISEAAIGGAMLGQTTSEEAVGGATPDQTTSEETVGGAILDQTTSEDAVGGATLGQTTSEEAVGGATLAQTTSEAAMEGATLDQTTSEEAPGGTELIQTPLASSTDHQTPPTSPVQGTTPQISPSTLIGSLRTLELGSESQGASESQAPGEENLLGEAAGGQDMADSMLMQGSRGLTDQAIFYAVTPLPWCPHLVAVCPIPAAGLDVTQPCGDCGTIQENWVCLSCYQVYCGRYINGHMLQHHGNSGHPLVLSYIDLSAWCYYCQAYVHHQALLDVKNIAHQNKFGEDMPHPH

Structure (SMILES)	pIC50 (Human HDAC6)	Selectivity (6 v 8) (fold) (Human HDAC6)	pIC50 (Human HDAC8)
Fc1ccc(OCc2ncc(-c3nnc(C(F)F)o3)cn2)cc1 [Compound 1, 2-(difluoromethyl)-5-(2-((4-fluorophenoxy)methyl)pyrimidin-5-yl)-1,3,4-oxadiazole]	7.00 to 9.00	V (V: >1000)	< 4.00
Fc1ccc(Cl)cc1OCc1ccc(-c2nnc(C(F)F)o2)cn1 [Compound 2, 2-(6-((5-chloro-2-fluorophenoxy)methyl)pyridin-3-yl)-5-(difluoromethyl)-1,3,4-oxadiazole]	7.00 to 9.00	V (V: >1000)	< 4.00
Fc1cc(Cl)ccc1OCc1ccc(-c2nnc(C(F)F)o2)cn1 [Compound 3, 2-(6-((4-chloro-2-fluorophenoxy)methyl)pyridin-3-yl)-5-(difluoromethyl)-1,3,4-oxadiazole]	7.00 to 9.00	V (V: >1000)	< 4.00
Fc1ccc(OCc2ccc(-c3nnc(C(F)F)o3)cn2)c(Cl)c1 [Compound 4, 2-(6-((2-chloro-4-fluorophenoxy)methyl)pyridin-3-yl)-5-(difluoromethyl)-1,3,4-oxadiazole]	7.00 to 9.00	V (V: >1000)	< 4.00
Fc1ccc(OCc2ccc(-c3nnc(C(F)F)o3)cn2)c(F)c1 [Compound 5, 2-(difluoromethyl)-5-(6-((2,4-difluorophenoxy)methyl)pyridin-3-yl)-1,3,4-oxadiazole]	7.00 to 9.00	V (V: >1000)	< 4.00
Fc1ccc(OCc2ncc(-c3nnc(C(F)F)o3)cc2F)cc1 [Compound 6, 2-(difluoromethyl)-5-(5-fluoro-6-((4-fluorophenoxy)methyl)pyridin-3-yl)-1,3,4-oxadiazole]	7.00 to 9.00	V (V: >1000)	< 4.00
Fc1ccc(Cl)c(OCc2ccc(-c3nnc(C(F)F)o3)cn2)c1 [Compound 7, 2-(6-((2-chloro-5-fluorophenoxy)methyl)pyridin-3-yl)-5-(difluoromethyl)-1,3,4-oxadiazole]	7.00 to 9.00	V (V: >1000)	< 4.00
FC(F)c1nnc(-c2ccc(COc3ccc(Cl)cc3)nc2)o1 [Compound 8, 2-(6-((4-chlorophenoxy)methyl)pyridin-3-yl)-5-(difluoromethyl)-1,3,4-oxadiazole]	7.00 to 9.00	V (V: >1000)	< 4.00
Fc1ccc(OCc2ccc(-c3nnc(C(F)F)o3)cn2)cc1F [Compound 9, 2-(difluoromethyl)-5-(6-((3,4-difluorophenoxy)methyl)pyridin-3-yl)-1,3,4-oxadiazole]	7.00 to 9.00	V (V: >1000)	< 4.00
FC(F)c1nnc(-c2ccc(COc3cccc4cccnc34)nc2)o1 [Compound 10, 2-(difluoromethyl)-5-(6-((quinolin-8-yloxy)methyl)pyridin-3-yl)-1,3,4-oxadiazole]	7.00 to 9.00	V (V: >1000)	< 4.00
FC(F)c1nnc(-c2ccc(COc3cccc4ccccc34)nc2)o1 [Compound 11, 2-(difluoromethyl)-5-(6-((naphthalen-1-yloxy)methyl)pyridin-3-yl)-1,3,4-oxadiazole]	7.00 to 9.00	V (V: >1000)	< 4.00
Fc1ccc(OCc2ccc(-c3nnc(C(F)F)o3)cn2)cc1 [Compound 12, 2-(difluoromethyl)-5-(6-((4-fluorophenoxy)methyl)pyridin-3-yl)-1,3,4-oxadiazole]	7.00 to 9.00	V (V: >1000)	< 4.00
FC(F)c1nnc(-c2ccc(C(F)(F)Oc3cccc4cccnc34)nc2)o1 [Compound 13, 2-(6-(difluoro(quinolin-8-yloxy)methyl)pyridin-3-yl)-5-(difluoromethyl)-1,3,4-oxadiazole]	7.00 to 9.00	V (V: >1000)	< 4.00
Fc1ccc(OC(F)(F)c2ccc(-c3nnc(C(F)F)o3)cn2)cc1 [Compound 15, 2-(6-(difluoro(4-fluorophenoxy)methyl)pyridin-3-yl)-5-(difluoromethyl)-1,3,4-oxadiazole]	6.00 to 7.00	V (V: >1000)	< 4.00
FC(F)c1nnc(-c2ccc(COc3ccccn3)nc2)o1 [Compound 16, 2-(difluoromethyl)-5-(6-((pyridin-2-yloxy)methyl)pyridin-3-yl)-1,3,4-oxadiazole]	7.00 to 9.00	V (V: >1000)	< 4.00
FC(F)c1nnc(-c2ccc(COc3cccnc3)nc2)o1 [Compound 17, 2-(difluoromethyl)-5-(6-((pyridin-3-yloxy)methyl)pyridin-3-yl)-1,3,4-oxadiazole]	7.00 to 9.00	V (V: >1000)	4.00 to 5.00
FC(F)c1nnc(-c2ccc(COc3ccncc3)nc2)o1 [Compound 18, 2-(difluoromethyl)-5-(6-((pyridin-4-yloxy)methyl)pyridin-3-yl)-1,3,4-oxadiazole]	7.00 to 9.00	V (V: >1000)	< 4.00
Fc1cncc(OCc2ccc(-c3nnc(C(F)F)o3)cn2)c1 [Compound 19, 2-(Difluoromethyl)-5-(6-(((5-fluoropyridin-3-yl)oxy)methyl)pyridin-3-yl)-1,3,4-oxadiazole]	7.00 to 9.00	V (V: >1000)	< 4.00
FC(F)c1nnc(-c2ccc(COCC34CC5CC(CC(C5)O3)C4)nc2)o1 [Compound 20, 2-(6-(((2-oxaadamantan-1-yl)methoxy)methyl)pyridin-3-yl)-5-(difluoromethyl)-1,3,4-oxadiazole]	7.00 to 9.00	V (V: >1000)	< 4.00
N#Cc1cccc(OCc2ccc(-c3nnc(C(F)F)o3)cn2)c1 [Compound 26]	7.00 to 9.00	V (V: >1000)	< 4.00
N#CCc1cccc(OCc2ccc(-c3nnc(C(F)F)o3)cn2)c1 [Compound 27]	7.00 to 9.00	V (V: >1000)	< 4.00
FC(F)c1nnc(-c2ccc(COc3cccc4ocnc34)nc2)o1 [Compound 28]	7.00 to 9.00	V (V: >1000)	< 4.00

Structure (SMILES)	pIC50 (Human HDAC6)	Selectivity (6 v 8) (fold) (Human HDAC6)	pIC50 (Human HDAC8)
N#Cc1c(F)cccc1OCc1ccc(-c2nnc(C(F)F)o2)cn1 [Compound 29]	7.00 to 9.00	IV (IV: >100-1000)	4.00 to 5.00
N#Cc1cc(OCc2ccc(-c3nnc(C(F)F)o3)cn2)ccc1F [Compound 30]	7.00 to 9.00	V (V: >1000)	< 4.00
FC(F)c1nnc(-c2ccc(COc3ccc4ccncc4c3)nc2)o1 [Compound 31]	7.00 to 9.00	IV (IV: >100-1000)	5.00 to 6.00
FC(F)c1nnc(-c2ccc(COc3ccc4cnccc4c3)nc2)o1 [Compound 32]	7.00 to 9.00	V (V: >1000)	4.00 to 5.00
FC(F)c1nnc(-c2ccc(COc3cccc4cnccc34)nc2)o1 [Compound 35]	7.00 to 9.00	V (V: >1000)	< 4.00
FC(F)c1nnc(-c2ccc(COc3ccc4nccnc4c3)nc2)o1 [Compound 36]	7.00 to 9.00	V (V: >1000)	< 4.00
Cn1ncc2cc(OCc3ccc(-c4nnc(C(F)F)o4)cn3)ccc21 [Compound 37]	7.00 to 9.00	V (V: >1000)	4.00 to 5.00
C#Cc1cccc(OCc2ccc(-c3nnc(C(F)F)o3)cn2)c1 [Compound 39]	7.00 to 9.00	V (V: >1000)	< 4.00
FC(F)c1nnc(-c2ccc(COc3ccccc3-c3ccccc3)nc2)o1 [Compound 187, 2-(6-(([1,1′-biphenyl]-2-yloxy)methyl)pyridin-3-yl)-5-(difluoromethyl)-1,3,4-oxadiazole]	5.00 to 6.00	–	–
FC(F)c1nnc(-c2ccc(COc3cccc(-c4ccccc4)c3)nc2)o1 [Compound 188, 2-(6-(([1,1′-Biphenyl]-3-yloxy)methyl)pyridin-3-yl)-5-(difluoromethyl)-1,3,4-oxadiazole]	6.00 to 7.00	–	–
FC(F)c1nnc(-c2ccc(COc3ccnc(Cl)c3)nc2)o1 [Compound 189, 2-(6-(((2-Chloropyridin-4-yl)oxy)methyl)pyridin-3-yl)-5-(difluoromethyl)-1,3,4-oxadiazole]	7.00 to 9.00	–	–
O=C(Nc1ccccc1)c1cccc(OCc2ccc(-c3nnco3)cn2)c1 [Compound 196, 3-((5-(1,3,4-oxadiazol-2-yl)pyridin-2-yl)methoxy)-N-phenylbenzamide]	7.00 to 9.00	–	–
CNC(=O)c1cccc(OCc2ccc(-c3nnc(C(F)F)o3)cn2)c1 [Compound 197, 3-((5-(5-(difluoromethyl)-1,3,4-oxadiazol-2-yl)pyridin-2-yl)methoxy)-N-methylbenzamide]	7.00 to 9.00	–	–
Cn1nccc1-c1ccc(OCc2ccc(-c3nnc(C(F)F)o3)cn2)cc1 [Compound 199, 2-(Difluoromethyl)-5-(6-((4-(1-methyl-1H-pyrazol-5-yl)phenoxy)methyl)pyridin-3-yl)-1,3,4-oxadiazole]	7.00 to 9.00	–	–
Cn1c(-c2ccc(OCc3ccc(-c4nnc(C(F)F)o4)cn3)cc2)nc2ccccc21 [Compound 200]	7.00 to 9.00	–	–
Cn1c(-c2cccc(OCc3ccc(-c4nnc(C(F)F)o4)cn3)c2)nc2ccccc21 [Compound 201]	7.00 to 9.00	–	–
FC(F)c1nnc(-c2ccc(COc3cnc(C(F)(F)F)nc3)nc2)o1 [Compound 205]	7.00 to 9.00	–	–
FC(F)c1nnc(-c2ccc(COc3cccc(-c4nc5ccccc5[nH]4)c3)nc2)o1 [Compound 206]	7.00 to 9.00	–	–
FC(F)c1nnc(-c2ccc(COc3ccc(-c4nc5ccccc5[nH]4)cc3)nc2)o1 [Compound 207]	7.00 to 9.00	–	–
Cn1cnc2c(OCc3ccc(-c4nnc(C(F)F)o4)cn3)cccc21 [Compound 208]	7.00 to 9.00	–	–
Cn1cnc2ccc(OCc3ccc(-c4nnc(C(F)F)o4)cn3)cc21 [Compound 213]	7.00 to 9.00	–	–
